Like-named read-outs stand apart in the source and are kept apart here.
Tests used:
[1] = Caco-2 assay (permeability PappAB, PappBA, efflux ratio); type: in vitro ADME; settings: human, Caco-2, 10 μM test compound, pH 7.4; for Papp A→B at 90 min, 10 μM: apical to basolateral; for efflux ratio at 90 min, 10 μM: efflux ratio PappBA/PappAB, read-out: Caco ER
Outline: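 Bidirectional permeability (apical-to-basolateral and reverse) through polarized Caco-2 monolayers, BSA 0.25% on each side, 37 °C. Donor and receiver sampled at 0-90 min after 25-30 min preincubation, analysed by HPLC/MS/MS. Apparent permeabilities derived from transfer rate normalised to area and t=0 donor concentration; ER taken as PappBA over PappAB.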

[2] = test system: NCI-H358 cells; experiment: NCI-H358 CTG proliferation assay (120 h) (NSCLC, G12C); type: cell-based, human; settings: Homo sapiens
Outline: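 IC50 values derive from four-parameter nonlinear regression of CellTiter-Glo viability (RLU relative to DMSO wells) after 120 h of exposure. Cells were plated in RPMI-1640 + 10% FCS at 2000 per well (assay 1) or 200 per well (assay 2). Untreated cells were measured at compound addition as T0.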

[3] = test system: SAS cells; experiment: SAS CTG proliferation assay (120 h) (HNSCC, wt amplified); type: cell-based
Outline: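 Viability measured by CellTiter-Glo luminescence, normalized to DMSO wells, after 120 h compound treatment of SAS cells. Cells grown in DMEM:F12 plus 10% FCS at 300 cells per well, dosed the day after seeding. Four-parameter fit gives IC50.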

[4] = assay 2, CTG, read-out: H358 (assay 2) IC50
[5] = assay 1, CTG, read-out: H358 (assay 1) IC50

| Structure (SMILES) | Papp A→B at 90 min, 10 μM [1] [×10⁻⁶ cm/s] | efflux ratio at 90 min, 10 μM [1] | IC50 [2, 4] [nM] | IC50 [3] [nM] | IC50 [2, 5] [nM] |
| --- | --- | --- | --- | --- | --- |
| COCCNC(=O)c1ccn(-c2cc(O[C@@H](C)[C@@H]3CCCN3C)nc(-c3onc4c3CCC[C@@]43CCCc4sc(N)c(C#N)c43)n2)n1 [I-58] | 14 | 3.4 | 5 | 45 |  |
| C[C@H](Oc1cc(N2C[C@@H](N(C)C)[C@@H](O)C2)nc(-c2noc3c2CCC[C@@]32CCCc3sc(N)c(C#N)c32)n1)[C@@H]1CCCN1C [II-10] | 0.3 | 68 | 570 | 3540 |  |
| CNC(=O)c1ccn(-c2cc(O[C@@H](C)[C@@H]3CCCN3C)nc(-c3noc4c3CCC[C@@]43CCCc4sc(N)c(C#N)c43)n2)n1 [II-20] | 11.1 | 3.3 | 2 | 86 | 6 |
| C[C@H](Oc1cc(-n2ccc(C(N)=O)n2)nc(-c2noc3c2CCC[C@@]32CCCc3sc(N)c(C#N)c32)n1)[C@@H]1CCCN1C [II-21] | 3.5 | 6.6 | 4 | 35 | 10 |
| C[C@H](Oc1cc(-n2ccc(C(=O)NC3(C)COC3)n2)nc(-c2noc3c2CCC[C@@]32CCCc3sc(N)c(C#N)c32)n1)[C@@H]1CCCN1C [II-26] | 11 | 5.8 | 4 | 5 |  |
| C[C@H](Oc1cc(-c2ccn(C)n2)nc(-c2noc3c2CCC[C@@]32CCCc3sc(N)c(C#N)c32)n1)[C@@H]1C[C@@H](F)CN1C [II-27] | 11 | 0.7 | 44 | 151 | 112 |
| C[C@H](Oc1cc(N2CCNC3(COC3)C2)nc(-c2noc3c2CCC[C@@]32CCCc3sc(N)c(C#N)c32)n1)[C@@H]1CCCN1C [II-31] | < 0.1 |  | 143 | 208 |  |
| CN[C@H]1CCN(c2cc(O[C@@H](C)[C@@H]3CCCN3C)nc(-c3noc4c3CCC[C@@]43CCCc4sc(N)c(C#N)c43)n2)C1 [II-35] | < 0.5 |  | 457 | 4730 |  |
| C[C@H](Oc1cc(N2CCNC3(CCC3)C2)nc(-c2noc3c2CCC[C@@]32CCCc3sc(N)c(C#N)c32)n1)[C@@H]1CCCN1C [II-40] | 0.8 | 39.7 | 1300 | 979 |  |
| C[C@H](Oc1cc(-c2ccn([C@H]3CCCOC3)n2)nc(-c2noc3c2CCC[C@@]32CCCc3sc(N)c(C#N)c32)n1)[C@@H]1CCCN1C [II-42] |  | 2 | 136 | 264 |  |
| C[C@H](Oc1cc(-c2ccn(C[C@@H]3CCCO3)n2)nc(-c2noc3c2CCC[C@@]32CCCc3sc(N)c(C#N)c32)n1)[C@@H]1CCCN1C [II-43] | 10 | 1.2 | 117 | 24 |  |
| C[C@H](Oc1cc(C2CCCO2)nc(-c2noc3c2CCC[C@@]32CCCc3sc(N)c(C#N)c32)n1)[C@@H]1CCCN1C (stereo partly drawn) [II-44] | 15 | 1.5 | 398 | 6000 |  |
| C[C@H](Oc1cc(N2CCNCC2)nc(-c2noc3c2CCC[C@@]32CCCc3sc(N)c(C#N)c32)n1)[C@@H]1CCCN1C [II-45] |  |  | > 25000 | 530 | 969 |
| C[C@H](Oc1cc(N2CC[C@@H](N(C)C)C2)nc(-c2noc3c2CCC[C@@]32CCCc3sc(N)c(C#N)c32)n1)[C@@H]1CCCN1C [II-47] |  |  | 2050 | 2620 |  |
| C[C@H](Oc1cc(N2CCC(N(C)C)CC2)nc(-c2noc3c2CCC[C@@]32CCCc3sc(N)c(C#N)c32)n1)[C@@H]1CCCN1C [II-48] | 0.6 | 32.2 | 2160 | 3880 |  |
| [2H]C([2H])([2H])N1C[C@H](F)C[C@H]1[C@H](C)Oc1cc(N2CCNC3(CC3)C2)nc(-c2noc3c2CCC[C@@]32CCCc3sc(N)c(C#N)c32)n1 [II-208] |  | 1.8 | 99 | 718 |  |
| [2H]C([2H])([2H])N1C[C@H](F)C[C@H]1[C@H](C)Oc1cc(N2CCN(C)C3(CC3)C2)nc(-c2noc3c2CCC[C@@]32CCCc3sc(N)c(C#N)c32)n1 [II-209] |  | 0.8 | 136 | 737 |  |

Reference: patent US20240174690A1, “ANNULATED 2-AMINO-3-CYANO THIOPHENES AND DERIVATIVES FOR THE TREATMENT OF CANCER” (BOEHRINGER INGELHEIM INTERNATIONAL GMBH, priority 2021, published 2024)
